From US20230265151A1, “GIP/GLP1 CO-AGONIST COMPOUNDS” (priority 2020, published 2023) come the findings set out here.

Molecules are shown by their SMILES. Where two headings read alike, the source gives them in different places.

One test has as its target T1, hGCGR (Homo sapiens, UniProt P47871).
T1 construct: expressed in transfected cells
Briefly: Functional cAMP formation (HTRF) in HEK-293 clonal cells expressing hGCGR, 0.1% bovine casein, without or with 1.0% human serum albumin. It counts as cell-based. To be noted: cAMP, 37° C., read-out: hGCGR EC50, nM (SEM, n). The essentials:
(§1)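 Cells were stimulated with peptide for 30 min at 37° C, then lysed in buffer carrying cAMP-d2 and anti-cAMP Eu3+-cryptate for a competitive HTRF read after at least 60 min at room temperature. The 665/620 nm ratio was converted to nM cAMP against a standard curve.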

The target in another test is hGLP-1R (Homo sapiens, UniProt P43220). Briefly: Functional cAMP formation (HTRF) in HEK-293 clonal cells expressing hGLP-1R, 0.1% bovine casein, without or with 1.0% human serum albumin. It counts as cell-based. More on the design: expressed in transfected cells. The settings on record: 37° C.; for Emax: HEK293, cAMP, percent of maximal response to GLP-1(7-36)NH2, read-out: hGLP-1R Emax, % ± SEM; for EC50: cAMP, read-out: hGLP-1R EC50, nM (SEM, n). A digest of the protocol:
as §1
In general terms: Changes in cAMP serve as a functional read-out for many G protein-coupled receptors.

Test [1] has as its target T2, human GIP receptor (hGIPR) (Homo sapiens, UniProt P48546).
T2 construct: expressed in transfected cells; crude membranes
T2 sequence (P48546 22-466): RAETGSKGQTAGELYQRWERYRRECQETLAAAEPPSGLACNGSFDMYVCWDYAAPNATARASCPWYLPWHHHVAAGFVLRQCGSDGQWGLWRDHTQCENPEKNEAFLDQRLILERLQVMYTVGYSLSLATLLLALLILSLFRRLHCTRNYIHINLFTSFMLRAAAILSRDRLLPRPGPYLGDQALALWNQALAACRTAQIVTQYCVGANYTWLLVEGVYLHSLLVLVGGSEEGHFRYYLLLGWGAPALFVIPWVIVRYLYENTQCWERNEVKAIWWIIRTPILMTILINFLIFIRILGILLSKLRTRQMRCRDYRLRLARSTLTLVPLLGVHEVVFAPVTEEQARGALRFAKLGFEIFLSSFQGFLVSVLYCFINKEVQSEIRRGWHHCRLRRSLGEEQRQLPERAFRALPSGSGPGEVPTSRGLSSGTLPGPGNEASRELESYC
As to the kind of experiment: [125I]-GIP binding, SPA with membranes of CHO cells expressing hGIPR. To be noted: human GIPR; geometric mean (SEM, n); read-out: Binding Affinity Ki, nM (SEM, n) hGIPR.

A further test addresses T3, hGIPR (Homo sapiens, UniProt P48546).
T3 construct: expressed in transfected cells
T3 sequence (P48546 22-466): T2 sequence (P48546 22-466)
As to the kind of experiment: Functional cAMP formation (HTRF) in HEK-293 clonal cells expressing hGIPR, 0.1% bovine casein, without or with 1.0% human serum albumin. It counts as cell-based. To be noted: 37° C. A digest of the protocol:
as §1

Test [2] concerns the target T4, human GLP-1 receptor (hGLP-1R) (Homo sapiens, UniProt P43220).
T4 construct: expressed in transfected cells; crude membranes
Briefly: [125I]-GLP-1 binding, SPA with membranes of HEK293 cells expressing hGLP-1R. To be noted: human GLP-1R; geometric mean (SEM, n); read-out: Binding Affinity Ki, nM (SEM, n) hGLP-1R.

Where [3] appears, read: 0.1% bovine casein (no human serum albumin), geometric mean.
Where [4] appears, read: 0.1% bovine casein and 1.0% human serum albumin, geometric mean (SEM, n).

hGLP-1R, sequence (P43220 24-463): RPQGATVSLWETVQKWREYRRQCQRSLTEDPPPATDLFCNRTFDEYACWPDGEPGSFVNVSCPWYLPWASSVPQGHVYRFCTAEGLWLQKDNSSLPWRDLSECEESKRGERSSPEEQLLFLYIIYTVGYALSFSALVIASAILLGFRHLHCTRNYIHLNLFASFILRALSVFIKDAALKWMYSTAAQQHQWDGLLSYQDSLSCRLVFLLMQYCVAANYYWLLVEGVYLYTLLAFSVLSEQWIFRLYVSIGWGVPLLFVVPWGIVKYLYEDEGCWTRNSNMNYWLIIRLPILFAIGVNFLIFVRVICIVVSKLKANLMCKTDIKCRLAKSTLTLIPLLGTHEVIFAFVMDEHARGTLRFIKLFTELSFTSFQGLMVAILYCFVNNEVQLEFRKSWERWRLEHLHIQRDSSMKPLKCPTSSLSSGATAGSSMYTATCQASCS
T1 sequence (P47871 26-477): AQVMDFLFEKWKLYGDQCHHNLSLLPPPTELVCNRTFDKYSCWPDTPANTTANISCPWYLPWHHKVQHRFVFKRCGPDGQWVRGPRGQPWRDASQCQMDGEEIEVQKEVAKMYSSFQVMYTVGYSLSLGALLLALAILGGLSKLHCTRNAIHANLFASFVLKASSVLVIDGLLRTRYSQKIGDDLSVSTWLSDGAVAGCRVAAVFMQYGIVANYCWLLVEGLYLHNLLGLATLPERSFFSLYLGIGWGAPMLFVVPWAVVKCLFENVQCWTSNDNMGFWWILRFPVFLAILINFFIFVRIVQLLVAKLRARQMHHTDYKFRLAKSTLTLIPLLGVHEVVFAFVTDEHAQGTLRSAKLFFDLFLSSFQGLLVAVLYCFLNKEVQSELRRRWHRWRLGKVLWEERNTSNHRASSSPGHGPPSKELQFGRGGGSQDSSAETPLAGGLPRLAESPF
T4 sequence (P43220 24-463): as the sequence (P43220 24-463) above

`CCCCCCCCCCCC(=O)N[C@@H](CCC(=O)NCCOCCOCC(=O)NCCOCCOCC(=O)NCCCC[C@H](NC(=O)[C@H](CO)NC(=O)[C@@H]1CCCN1C(=O)[C@@H]1CCCN1C(=O)[C@@H]1CCCN1C(=O)[C@H](C)NC(=O)CNC(=O)[C@H](CO)NC(=O)[C@H](CO)NC(=O)[C@@H]1CCCN1C(=O)CNC(=O)CNC(=O)[C@H](CCC(=O)O)NC(=O)[C@@H](NC(=O)[C@H](CC(C)C)NC(=O)[C@](C)(Cc1ccc(O)cc1)NC(=O)[C@@H](CCC(=O)O)NC(=O)[C@@H](NC(=O)[C@H](Cc1ccccc1)NC(=O)[C@H](CCC(=O)O)NC(=O)C(C)(C)NC(=O)[C@H](CCC(N)=O)NC(=O)[C@H](C)NC(=O)[C@H](CCCCNC(=O)COCCOCCNC(=O)COCCOCCNC(=O)CC[C@H](NC(=O)CCCCCCCCCCC)C(=O)O)NC(=O)[C@H](CCCN)NC(=O)[C@H](CC(=O)O)NC(=O)[C@H](CC(C)C)NC(=O)[C@](C)(CC(C)C)NC(=O)[C@@H](NC(=O)C(C)(C)NC(=O)[C@H](Cc1ccncc1)NC(=O)[C@H](CC(=O)O)NC(=O)[C@H](CO)NC(=O)[C@@H](NC(=O)[C@](C)(Cc1ccccc1F)NC(=O)[C@@H](NC(=O)CNC(=O)[C@H](CCC(=O)O)NC(=O)C(C)(C)NC(=O)[C@@H](N)Cc1ccc(O)cc1)[C@@H](C)O)[C@@H](C)O)[C@@H](C)CC)[C@@H](C)CC)[C@@H](C)CC)C(N)=O)C(=O)O` [Example 324]: the EC50 (as a rule, the concentration at which the effect is half-maximal) on hGCGR (setting [3]) was more than 9950 nM; on hGCGR (setting [4]) it was more than 9950 nM; at hGLP-1R (setting [3]) it was 0.0647 nM; on hGLP-1R (setting [4]), 4.38 nM; at hGIPR (cAMP, 0.1% bovine casein (no human serum albumin), geometric mean, read-out: hGIPR EC50, nM (SEM, n)), 0.00632 nM. Also, the Emax (in general, the maximal effect, on the per cent scale that the assay sets) on hGLP-1R (0.1% bovine casein and 1.0% human serum albumin) was determined as 99.4%; at hGLP-1R (0.1% bovine casein, arithmetic mean), 97.6%; on hGIPR (HEK293, cAMP, 0.1% bovine casein and 1.0% human serum albumin, percent of maximal response to GIP(1-42)NH2, read-out: hGIPR Emax, % ± SEM), 85.4%. Further, the figures for the Ki in test [1] and in test [2] were 0.0163 nM and 0.168 nM, respectively.
